Data taken from the supplement of paper PMC9663587.

What was measured:
[1] = compound: CCOc1cc2ncc(C#N)c(Nc3ccc(OCc4ccccn4)c(Cl)c3)c2cc1NC(=O)/C=C/CN(C)C [Neratinib/HKI272]; assay: increase in dead-cell fraction, 72 h; higher = more death;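 note: breast cancer cell lines in 384-well plates, stained with Hoechst plus LIVE/DEAD far red dye and imaged, cells above an LDR intensity threshold counted dead, Hoechst-negative corpses included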
[2] = compound: CC(=O)c1c(C)c2cnc(Nc3ccc(N4CCNCC4)cn3)nc2n(C2CCCC2)c1=O; assay: as above
[3] = compound: CCN1CCN(Cc2ccc(Nc3ncc(F)c(-c4cc(F)c5nc(C)n(C(C)C)c5c4)n3)nc2)CC1; assay: as above
[4] = compound: CN1CC[C@H](c2c(O)cc(O)c3c(=O)cc(-c4ccccc4Cl)oc23)[C@H](O)C1 [Flavopiridol]; assay: as above
[5] = compound: CN(C)C(=O)c1cc2cnc(Nc3ccc(N4CCNCC4)cn3)nc2n1C1CCCC1 [LEE011/Ribociclib]; assay: as above
[6] = compound: CC(=O)c1c(C)c2cnc(Nc3ccc(N4CCN(CCOCCOCCOCCNC(=O)COc5cccc6c5C(=O)N(C5CCC(=O)NC5=O)C6=O)CC4)cn3)nc2n(C2CCCC2)c1=O [BSJ-03-123]; assay: as above
[7] = compound: CCc1cnn2c(NCc3ccc[n+]([O-])c3)cc(N3CCCC[C@H]3CCO)nc12; assay: as above
[8] = compound: CN(C)C/C=C/C(=O)Nc1ccc(C(=O)Nc2cccc(Nc3ncc(Cl)c(-c4c[nH]c5ccccc45)n3)c2)cc1 [THZ1]; assay: as above
[9] = compound: CC(=O)Nc1cccc(-n2c(=O)n(C3CC3)c(=O)c3c(Nc4ccc(I)cc4F)n(C)c(=O)c(C)c32)c1
[10] = compound: CCC1=CN=CN=C1N2CCN(CC2)CC3=NC4=C(N3)C=C(C=C4)C(F)(F)F
[11] = compound: CN(C)C/C=C/C(=O)Nc1ccc(O[C@@H]2CCC[C@@H](Nc3ncc(Cl)c(-c4c[nH]c5ccccc45)n3)C2)cc1 [BSJ-01-175]
[12] = compound: CCN1CCN(Cc2ccc(Nc3ncc(F)c(-c4cc(F)c5nc(C)n(C(C)C)c5c4)n3)nc2)CC1
[13] = compound: COc1ccc2c(c1)[C@]1(C[C@H]1c1ccc3c(/C=C/c4ccc(CN5C[C@@H](C)O[C@@H](C)C5)cc4)n[nH]c3c1)C(=O)N2
[14] = compound: CNC(=O)c1cccc(-c2ccc3c(N4CCOC[C@@H]4C)nc(N4CCOC[C@@H]4C)nc3n2)c1 [AZD2014]
[15] = compound: NC(=O)Nc1cc(-c2cccc(F)c2)sc1C(=O)N[C@H]1CCCNC1 [AZD7762]
[16] = compound: CC(C)NC[C@@H](C(=O)N1CCN(c2ncnc3c2[C@H](C)C[C@H]3O)CC1)c1ccc(Cl)cc1 [Ipatasertib/GDC0068]
[17] = compound: O=C1NC(=O)[C@@H](c2cn3c4c(cccc24)CCC3)[C@@H]1c1c[nH]c2ccccc12 [Tivantinib/ARQ197]
[18] = compound: O=C(CCCCCCC(=O)Nc1ccccc1)NO [Vorinostat]
[19] = compound: C[C@@H]1COCCN1c1cc(C2([S@](C)(=N)=O)CC2)nc(-c2cc[nH]c3nccc2-3)n1 [AZD6738]
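Throughout, for GR50, 72 h: breast cancer and non-malignant breast epithelial cell lines, Deep Dye Drop or Dye Drop imaging, nine half-log doses, GR normalized to time-zero plates and DMSO-only controls.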

## HTERT_HME1
[1]; 0.0003162 µM
  increase in dead-cell fraction: -0.0015
[1]; 0.001 µM
  increase in dead-cell fraction: 0.0018
[1]; 0.003162 µM
  increase in dead-cell fraction: 0.0002
[1]; 0.01 µM
  increase in dead-cell fraction: -0.0031
[1]; 0.03162 µM
  increase in dead-cell fraction: -0.0026
[1]; 0.1 µM
  increase in dead-cell fraction: 0.0016
[1]; 0.3162 µM
  increase in dead-cell fraction: 0.0161
[1]; 1 µM
  increase in dead-cell fraction: 0.0278
[1]; 3.162 µM
  increase in dead-cell fraction: 0.106
[2]; 0.0003162 µM
  increase in dead-cell fraction: -0.0026
[2]; 0.001 µM
  increase in dead-cell fraction: 0.0007
[2]; 0.003162 µM
  increase in dead-cell fraction: -0.0013
[2]; 0.01 µM
  increase in dead-cell fraction: -0.0019
[2]; 0.03162 µM
  increase in dead-cell fraction: 0.0014
[2]; 0.1 µM
  increase in dead-cell fraction: 0.0147
[2]; 0.3162 µM
  increase in dead-cell fraction: 0.0168
[2]; 1 µM
  increase in dead-cell fraction: 0.0267
[2]; 3.162 µM
  increase in dead-cell fraction: 0.0446
[3]; 0.001 µM
  increase in dead-cell fraction: 0.0004
[3]; 0.003162 µM
  increase in dead-cell fraction: -0.0056
[3]; 0.01 µM
  increase in dead-cell fraction: -0.0023
[3]; 0.03162 µM
  increase in dead-cell fraction: 0.002
[3]; 0.1 µM
  increase in dead-cell fraction: 0.0067
[3]; 0.3162 µM
  increase in dead-cell fraction: 0.0112
[3]; 1 µM
  increase in dead-cell fraction: 0.0329
[3]; 3.162 µM
  increase in dead-cell fraction: 0.0399
[3]; 10 µM
  increase in dead-cell fraction: 0.111
[4]; 0.0001 µM
  increase in dead-cell fraction: -0.0184
[4]; 0.0003162 µM
  increase in dead-cell fraction: -0.0042
[4]; 0.001 µM
  increase in dead-cell fraction: 0.0033
[4]; 0.003162 µM
  increase in dead-cell fraction: 0.0052
[4]; 0.01 µM
  increase in dead-cell fraction: 0.0001
[4]; 0.03162 µM
  increase in dead-cell fraction: 0.007
[4]; 0.1 µM
  increase in dead-cell fraction: 0.051
[4]; 0.3162 µM
  increase in dead-cell fraction: 0.183
[4]; 1 µM
  increase in dead-cell fraction: 0.577
[5]; 0.001 µM
  increase in dead-cell fraction: 0.0038
[5]; 0.003162 µM
  increase in dead-cell fraction: 0.0127
[5]; 0.01 µM
  increase in dead-cell fraction: 0.0406
[5]; 0.03162 µM
  increase in dead-cell fraction: 0.0372
[5]; 0.1 µM
  increase in dead-cell fraction: 0.0514
[5]; 0.3162 µM
  increase in dead-cell fraction: 0.0715
[5]; 1 µM
  increase in dead-cell fraction: 0.0391
[5]; 3.162 µM
  increase in dead-cell fraction: 0.0932
[5]; 10 µM
  increase in dead-cell fraction: 0.132
[6]; 0.001 µM
  increase in dead-cell fraction: 0.0124
[6]; 0.003162 µM
  increase in dead-cell fraction: -0.0077
[6]; 0.01 µM
  increase in dead-cell fraction: 0.0297
[6]; 0.03162 µM
  increase in dead-cell fraction: 0.0411
[6]; 0.1 µM
  increase in dead-cell fraction: 0.0394
[6]; 0.3162 µM
  increase in dead-cell fraction: 0.0338
[6]; 1 µM
  increase in dead-cell fraction: 0.131
[6]; 3.162 µM
  increase in dead-cell fraction: 0.119
[6]; 10 µM
  increase in dead-cell fraction: 0.363
[7]; 0.0001 µM
  increase in dead-cell fraction: -0.0004
[7]; 0.0003162 µM
  increase in dead-cell fraction: -0.0019
[7]; 0.001 µM
  increase in dead-cell fraction: 0.0008
[7]; 0.003162 µM
  increase in dead-cell fraction: 0.0059
[7]; 0.01 µM
  increase in dead-cell fraction: 0.0263
[7]; 0.03162 µM
  increase in dead-cell fraction: 0.571
[7]; 0.1 µM
  increase in dead-cell fraction: 0.558
[7]; 0.3162 µM
  increase in dead-cell fraction: 0.535
[7]; 1 µM
  increase in dead-cell fraction: 0.511
[8]; 0.0001 µM
  increase in dead-cell fraction: -0.0026
[8]; 0.0003162 µM
  increase in dead-cell fraction: 0.0021
[8]; 0.001 µM
  increase in dead-cell fraction: 0.0031
[8]; 0.003162 µM
  increase in dead-cell fraction: 0.0375
[8]; 0.01 µM
  increase in dead-cell fraction: 0.292
[8]; 0.03162 µM
  increase in dead-cell fraction: 0.545
[8]; 0.1 µM
  increase in dead-cell fraction: 0.528
[8]; 0.3162 µM
  increase in dead-cell fraction: 0.548
[8]; 1 µM
  increase in dead-cell fraction: 0.71
[9]
  GR50, 72 h: 0.00573 µM
[10]
  GR50, 72 h: 5.4 µM
[11]
  GR50, 72 h: 0.00582 µM
[12]
  GR50, 72 h: 0.199 µM
[13]
  GR50, 72 h: 0.0011 µM
[14]
  GR50, 72 h: 0.0169 µM
[15]
  GR50, 72 h: 0.259 µM
[16]
  GR50, 72 h: > 10 µM
[17]
  GR50, 72 h: 0.0344 µM
[18]
  GR50, 72 h: 3.02 µM
[19]
  GR50, 72 h: 5.78 µM
